This passage reports IC50 results from patent US9796719B2, “Compounds and pharmaceutical compositions thereof for the treatment of inflammatory disorders” (GALAPAGOS NV, priority 2013, dated 2017).

As usually defined, the IC50 is the concentration that inhibits the measured activity by half. A higher IC50 goes with lower potency.

The structures appear in SMILES notation.

The test has as its target hENPP2 (UniProtKB/SwissProt Sequence ref Q13822) (Homo sapiens (Human), UniProt Q13822). The test is described as follows: LPC hENPP2 assay (choline release, LPC as substrate). It is filed as biochemical. How it is done: The principle of the assay consists in quantifying the released choline with an enzymatic method using choline oxidase and peroxidase. Choline oxydation by choline oxydase releases betaine and peroxide. The latter is quantified in presence of HRP that converts the peroxide detection agent TOOS and 4-aminoantipyrine into quinoneimine dye. The appearance of quinoneimine dye is measured spectrophotometrically at 555 nm and is proportional to the amount of choline released by ENPP2. Inhibition of ENPP2 will result in a decrease of the signal.
The reaction is terminated and choline quantified by the addition of a 25 μL of a mixture containing 0.6 U/mL of choline oxidase, 0.6 U/mL of peroxydase, 1.8 mM TOOS, 1.2 mM amino-antipyrine, 20 mM EGTA (stop-developer solution) diluted in the buffer described above. […] is read on the Envision after an incubation of 30 min at room temperature (Excitation 555 nm, excitation light=70%).
Compound `CCc1nc2ccc(N3CCC(NC(=O)C4CCNCC4)CC3)nn2c1N(C)c1nc(-c2ccc(F)cc2)cs1` [Cpd 88, N-(1-(2-ethyl-3-((4-(4-fluorophenyl)thiazol-2-yl)(methyl)amino)imidazo[1,2-b]pyridazin-6-yl)piperidin-4-yl)piperidine-4-carboxamide] yielded an IC50 of 500 to 1000 nM.
For `CCc1nc2ccc(N3CCN(S(C)(=O)=O)[C@H](COC)C3)nn2c1N(C)c1nc(-c2ccc(F)cc2)cs1` [Compound 62, (S)—N-(2-ethyl-6-(3-(methoxymethyl)-4-(methylsulfonyl)piperazin-1-yl)imidazo[1,2-b]pyridazin-3-yl)-4-(4-fluorophenyl)-N-methylthiazol-2-amine], the half-maximal inhibitory concentration (IC50) is above 1000 nM.
Take `CCc1nc2ccc(C3CCN(CC(=O)N(C)C)CC3)nn2c1N(C)c1nc(-c2ccc(F)cc2C#N)cs1` [Cpd 208, 2-(4-(3-((4-(2-cyano-4-fluorophenyl)thiazol-2-yl)(methyl)amino)-2-ethylimidazo[1,2-b]pyridazin-6-yl)piperidin-1-yl)-N,N-dimethylacetamide]: the IC50 lay in the range of 100 to 500 nM.
Under `CCc1nc2ccc(N3CC[C@@H](NCC(=O)N(C)C)C3)nn2c1N(C)c1nc(-c2ccc(F)cc2)c(C#N)s1` [Cpd 177, (R)-2-(1(3-((5-cyano-4-(4-fluorophenyl)thiazol-2-yl)(methyl)amino)-2-ethylimidazo[1,2-b]pyridazin-6-yl)pyrrolidin-3-ylamino)-N,N-dimethylacetamide] stands 0.01 to 100 nM; under `CCc1nc2ccc(N3CCC(N4CCC(CO)CC4)C3)nn2c1N(C)c1nc(-c2ccc(F)cc2)c(C#N)s1` (centres unmarked) [Cpd 179, 2-((2-ethyl-6-(3-(4-(hydroxymethyl)piperidin-1-yl)pyrrolidin-1-yl)imidazo[1,2-b]pyridazin-3-yl)(methyl)amino)-4-(4-fluorophenyl) thiazole-5-carbonitrile], 0.01 to 100 nM.
Under `CCc1nc2ccc(N3CCC(CNC(=O)N(C)C)CC3)nn2c1N(C)c1nc(-c2ccc(F)cc2)cs1` [Cpd 106, 3-((l-(2-ethyl-3-((4-(4-fluorophenyl)thiazol-2-yl)(methyl)amino)imidazo[1,2-b]pyridazin-6-yl)piperidin-4-yl)methyl)-1,1-dimethylurea] stands above 1000 nM.
Then `CCc1nc2ccc(N3CC(C(=O)N4CCOCC4)C3)nn2c1N(C)c1nc(-c2ccc(F)cc2)c(C#N)s1` [Cpd 191, 2-((2-ethyl-6-(3-(morpholine-4-carbonyl)azetidin-1-yl)imidazo[1,2-b]pyridazin-3-yl)(methyl)amino)-4-(4-fluorophenyl) thiazole-5-carbonitrile], with 100 to 500 nM; and `CCc1nc2ccc(N3CCN(CCCO)CC3)nn2c1N(C)c1nc(-c2ccc(F)cc2)c(CO)s1` [Cpd 50, 3-(4-(2-ethyl-3-((4-(4-fluorophenyl)-5-(hydroxymethyl)thiazol-2-yl)(methyl)amino)imidazo[1,2-b]pyridazin-6-yl)piperazin-1-yl)propan-1-ol], with above 1000 nM.
In the case of `CCc1nc2ccc(N3CCC(CO)C3)nn2c1N(C)c1nc(-c2ccc(F)cc2)c(C#N)s1` (centres unmarked) [Cpd 173, 2-((2-ethyl-6-(3-(hydroxymethyl)pyrrolidin-1-yl)imidazo[1,2-b]pyridazin-3-yl)(methyl)amino)-4-(4-fluorophenyl) thiazole-5-carbonitrile], the IC50 lay within 100 to 500 nM.
In turn, `CCc1nc2ccc(N3CCC4(CCN(C(=O)OC(C)(C)C)C4)C3)nn2c1N(C)c1nc(-c2ccc(F)cc2)c(C#N)s1` (centres unmarked) [Cpd 165, tert-butyl 7-(3-((5-cyano-4-(4-fluorophenyl)thiazol-2-yl)(methyl)amino)-2-ethylimidazo[1,2-b]pyridazin-6-yl)-2,7-diazaspiro[4.4] nonane-2-carboxylate] yielded an IC50 of 100 to 500 nM.
Then `CCc1nc2ccc(N3CCC4(CCCCC4)CC3)nn2c1N(C)c1nc(-c2ccc(F)cc2)cs1` [Cpd 77, N-(2-ethyl-6-(3-azaspiro[5.5]undecan-3-yl)imidazo[1,2-b]pyridazin-3-yl)-4-(4-fluorophenyl)-N-methylthiazol-2-amine], with above 1000 nM; and `CCc1nc2ccc(C3CCN(CC(=O)NC)CC3)nn2c1N(C)c1nc(-c2ccc(F)cc2C#N)cs1` [Cpd 209, 2-(4-(3-((4-(2-cyano-4-fluorophenyl)thiazol-2-yl)(methyl)amino)-2-ethylimidazo[1,2-b]pyridazin-6-yl)piperidin-1-yl)-N-methylacetamide], with 100 to 500 nM; and `CCc1nc2ccc(N3CC(CO)C3)nn2c1N(C)c1nc(-c2ccc(F)cc2)cs1` [Cpd 153, (1-(2-ethyl-3-((4-(4-fluorophenyl)thiazol-2-yl)(methyl)amino)imidazo[1,2-b]pyridazin-6-yl)azetidin-3-yl)methanol], with above 1000 nM.
The compound `CCc1nc2cnc(N3CCN(CC(=O)N4CC(F)(F)C4)CC3)cn2c1N(C)c1nc(-c2ccc(F)cc2)c(C#N)s1` [Cpd 3, 2-((6-(4-(2-(3,3-difluoroazetidin-1-yl)-2-oxoethyl)piperazin-1-yl)-2-ethylimidazo[1,2-a]pyrazin-3-yl)(methyl)amino)-4-(4-fluorophenyl) thiazole-5-carbonitrile] came in with an IC50 above 1000 nM.
`CCc1nc2ccc(C3CCN(CC(=O)N4CC(O)C4)CC3)nn2c1N(C)c1nc(-c2ccc(F)cc2C#N)ns1` [Cpd 220, 2-(5-((2-ethyl-6-(1-(2-(3-hydroxyazetidin-1-yl)-2-oxoethyl)piperidin-4-yl)imidazo[1,2-b]pyridazin-3-yl)(methyl)amino)-1,2,4-thiadiazol-3-yl)-5-fluorobenzonitrile] yielded an IC50 of 100 to 500 nM.
Under `CCc1nc2ccc(N3CCC(N(C)C)CC3)nn2c1N(C)c1nc(-c2ccc(F)cc2)cs1` [Cpd 80, N-(6-(4-(dimethylamino)piperidin-1-yl)-2-ethylimidazo[1,2-b]pyridazin-3-yl)-4-(4-fluorophenyl)-N-methylthiazol-2-amine] stands above 1000 nM; under `CCc1nc2ccc(N3CCC4(CN(C)C(=O)O4)C3)nn2c1N(C)c1nc(-c2ccc(F)cc2)c(CO)s1` (centres unmarked) [Cpd 120, 7-(2-ethyl-3-((4-(4-fluorophenyl)-5-(hydroxymethyl)thiazol-2-yl)(methyl)amino)imidazo[1,2-b]pyridazin-6-yl)-3-methyl-1-oxa-3,7-diazaspiro[4.4] nonan-2-one], 100 to 500 nM.
`CCc1nc2cnc(N3CCNCC3)cn2c1N(C)c1nc(-c2ccc(F)cc2)c(C#N)s1` [Compound 1, 2-((2-ethyl-6-(piperazin-1-yl)imidazo[1,2-a]pyrazin-3-yl)(methyl)amino)-4-(4-fluorophenyl)thiazole-5-carbonitrile] had an IC50 above 1000 nM.
With `CCc1nc2ccc(N3CCCC(N4CCC(O)CC4)C3)nn2c1N(C)c1nc(-c2ccc(F)cc2)cs1` (centres unmarked) [Cpd 112, l′-(2-ethyl-3-((4-(4-fluorophenyl)thiazol-2-yl)(methyl)amino)imidazo[1,2-b]pyridazin-6-yl)-1,3′-bipiperidin-4-ol], the IC50 is above 1000 nM.
As for `CCc1nc2ccc(N3CCN(C4CCN(Cc5ccc(OC)cc5)C4=O)CC3)nn2c1N(C)c1nc(-c2ccc(F)cc2)cs1` (centres unmarked) [Cpd 70, 3-(4-(2-ethyl-3-((4-(4-fluorophenyl)thiazol-2-yl)(methyl)amino)imidazo[1,2-b]pyridazin-6-yl)piperazin-1-yl)-1-(4-methoxybenzyl) pyrrolidin-2-one], the IC50 lay within 500 to 1000 nM.
